Measured values as given in BindingDB's records for PubMed 20126400 (University of Oklahoma, 2010).

Tests used:
Assay in all cases: Ray2010 Assay 74
[1] = target: 5-hydroxytryptamine receptor 2A (Homo sapiens, UniProt P28223)
Excerpt: (§1) Table S2 shows raw Ki data for the current study combined with data collected from the literature for the ten additional compounds.

Histamine H1 receptor = Histamine H1 receptor (Homo sapiens, UniProt P35367)
Excerpt: as §1

[2] = target: T1, Muscarinic acetylcholine receptor M1 (Homo sapiens, UniProt P11229)
T1 sequence (P11229 whole entry): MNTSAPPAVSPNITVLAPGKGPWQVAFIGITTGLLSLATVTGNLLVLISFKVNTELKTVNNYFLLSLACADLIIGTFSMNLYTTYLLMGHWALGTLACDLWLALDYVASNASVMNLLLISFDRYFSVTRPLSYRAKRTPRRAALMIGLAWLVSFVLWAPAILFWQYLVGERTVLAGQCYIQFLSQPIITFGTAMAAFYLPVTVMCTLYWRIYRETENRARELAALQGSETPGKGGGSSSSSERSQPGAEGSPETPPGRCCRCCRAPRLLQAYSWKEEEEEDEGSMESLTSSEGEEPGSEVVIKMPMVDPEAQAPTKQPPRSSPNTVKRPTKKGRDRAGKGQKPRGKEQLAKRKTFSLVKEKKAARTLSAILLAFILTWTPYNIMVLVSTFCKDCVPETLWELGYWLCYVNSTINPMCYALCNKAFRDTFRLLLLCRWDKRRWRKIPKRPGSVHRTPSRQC
Excerpt: as §1

[3] = target: Sodium-dependent dopamine transporter (Homo sapiens, UniProt Q01959)
Chain of Sodium-dependent dopamine transporter (Q01959 whole entry): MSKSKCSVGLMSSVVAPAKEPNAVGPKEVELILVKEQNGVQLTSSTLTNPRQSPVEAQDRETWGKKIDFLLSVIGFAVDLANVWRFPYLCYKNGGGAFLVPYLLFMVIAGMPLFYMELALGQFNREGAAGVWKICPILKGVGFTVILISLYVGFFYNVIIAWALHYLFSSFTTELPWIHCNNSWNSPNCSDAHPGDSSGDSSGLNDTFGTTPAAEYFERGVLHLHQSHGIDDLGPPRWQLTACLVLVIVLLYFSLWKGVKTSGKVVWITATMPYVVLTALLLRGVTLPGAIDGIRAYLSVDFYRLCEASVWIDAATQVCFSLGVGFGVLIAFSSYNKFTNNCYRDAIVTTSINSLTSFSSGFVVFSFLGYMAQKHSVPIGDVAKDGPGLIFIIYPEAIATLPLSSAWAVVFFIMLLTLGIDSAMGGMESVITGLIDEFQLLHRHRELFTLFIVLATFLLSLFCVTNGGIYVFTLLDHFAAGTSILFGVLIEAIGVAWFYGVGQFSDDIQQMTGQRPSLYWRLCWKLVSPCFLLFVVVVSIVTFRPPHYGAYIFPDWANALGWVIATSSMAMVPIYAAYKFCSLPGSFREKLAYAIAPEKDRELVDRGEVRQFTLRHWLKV
Excerpt: as §1

D(2) dopamine receptor = D(2) dopamine receptor (Homo sapiens, UniProt P14416)
Chain of D(2) dopamine receptor (P14416 whole entry): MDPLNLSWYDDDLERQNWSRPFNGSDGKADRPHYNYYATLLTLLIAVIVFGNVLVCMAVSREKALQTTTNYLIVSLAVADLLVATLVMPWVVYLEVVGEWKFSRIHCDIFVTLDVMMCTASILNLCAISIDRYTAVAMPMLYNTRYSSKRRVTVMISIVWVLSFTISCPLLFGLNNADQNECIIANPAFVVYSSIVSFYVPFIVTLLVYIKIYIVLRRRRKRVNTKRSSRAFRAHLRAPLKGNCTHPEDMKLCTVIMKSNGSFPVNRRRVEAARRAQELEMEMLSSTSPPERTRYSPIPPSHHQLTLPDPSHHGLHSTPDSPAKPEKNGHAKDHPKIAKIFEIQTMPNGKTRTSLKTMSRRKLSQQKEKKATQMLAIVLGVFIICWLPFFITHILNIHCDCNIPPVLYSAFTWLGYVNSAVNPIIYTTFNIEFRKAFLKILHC
Excerpt: as §1

[4] = target: T2, Alpha-1B adrenergic receptor (Homo sapiens, UniProt P35368)
T2 sequence (P35368 whole entry): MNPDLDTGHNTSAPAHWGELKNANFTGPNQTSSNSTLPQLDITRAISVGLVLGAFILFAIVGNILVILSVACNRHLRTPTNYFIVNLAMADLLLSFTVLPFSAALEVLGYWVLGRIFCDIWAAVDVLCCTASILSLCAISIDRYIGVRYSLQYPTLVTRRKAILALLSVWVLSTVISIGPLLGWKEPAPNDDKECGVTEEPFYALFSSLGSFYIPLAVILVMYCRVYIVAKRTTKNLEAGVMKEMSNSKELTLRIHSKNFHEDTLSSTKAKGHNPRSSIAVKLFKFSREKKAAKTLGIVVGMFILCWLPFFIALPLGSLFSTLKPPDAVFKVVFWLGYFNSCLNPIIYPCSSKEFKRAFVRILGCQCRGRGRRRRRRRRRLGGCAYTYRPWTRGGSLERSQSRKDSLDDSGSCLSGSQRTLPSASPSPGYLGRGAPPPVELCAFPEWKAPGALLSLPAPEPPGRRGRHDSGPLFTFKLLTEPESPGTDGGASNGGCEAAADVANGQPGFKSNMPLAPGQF
Excerpt: as §1

[5] = target: T3, Muscarinic acetylcholine receptor M2 (Homo sapiens, UniProt P08172)
T3 sequence (P08172 whole entry): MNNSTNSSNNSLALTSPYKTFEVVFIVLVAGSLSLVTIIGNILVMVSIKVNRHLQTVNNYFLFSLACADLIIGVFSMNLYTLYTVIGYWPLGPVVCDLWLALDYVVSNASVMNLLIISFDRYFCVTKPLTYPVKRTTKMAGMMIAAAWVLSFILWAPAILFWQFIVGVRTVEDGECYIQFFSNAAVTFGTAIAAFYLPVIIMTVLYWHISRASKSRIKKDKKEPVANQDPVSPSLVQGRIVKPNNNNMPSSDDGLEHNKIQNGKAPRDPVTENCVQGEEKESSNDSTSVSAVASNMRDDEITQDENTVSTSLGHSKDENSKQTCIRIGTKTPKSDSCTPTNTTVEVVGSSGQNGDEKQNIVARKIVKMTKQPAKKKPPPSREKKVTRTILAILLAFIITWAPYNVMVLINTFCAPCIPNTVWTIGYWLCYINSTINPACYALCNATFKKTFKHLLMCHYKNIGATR
Excerpt: as §1

D(1A) dopamine receptor = D(1A) dopamine receptor (Homo sapiens, UniProt P21728)
Chain of D(1A) dopamine receptor (P21728 whole entry): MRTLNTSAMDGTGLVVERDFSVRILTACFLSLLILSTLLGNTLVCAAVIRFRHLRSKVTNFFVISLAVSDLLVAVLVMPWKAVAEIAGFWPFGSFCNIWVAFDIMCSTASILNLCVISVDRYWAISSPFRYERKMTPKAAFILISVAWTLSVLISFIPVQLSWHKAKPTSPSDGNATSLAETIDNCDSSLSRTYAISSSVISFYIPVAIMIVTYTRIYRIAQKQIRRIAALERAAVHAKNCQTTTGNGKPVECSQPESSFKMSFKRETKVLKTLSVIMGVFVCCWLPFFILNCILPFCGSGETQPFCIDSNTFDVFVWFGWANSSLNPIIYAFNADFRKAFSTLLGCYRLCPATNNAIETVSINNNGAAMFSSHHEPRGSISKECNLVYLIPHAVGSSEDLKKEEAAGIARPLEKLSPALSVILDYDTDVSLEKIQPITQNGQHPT
Excerpt: as §1

[6] = target: T4, Muscarinic acetylcholine receptor M5 (Homo sapiens, UniProt P08912)
T4 sequence (P08912 whole entry): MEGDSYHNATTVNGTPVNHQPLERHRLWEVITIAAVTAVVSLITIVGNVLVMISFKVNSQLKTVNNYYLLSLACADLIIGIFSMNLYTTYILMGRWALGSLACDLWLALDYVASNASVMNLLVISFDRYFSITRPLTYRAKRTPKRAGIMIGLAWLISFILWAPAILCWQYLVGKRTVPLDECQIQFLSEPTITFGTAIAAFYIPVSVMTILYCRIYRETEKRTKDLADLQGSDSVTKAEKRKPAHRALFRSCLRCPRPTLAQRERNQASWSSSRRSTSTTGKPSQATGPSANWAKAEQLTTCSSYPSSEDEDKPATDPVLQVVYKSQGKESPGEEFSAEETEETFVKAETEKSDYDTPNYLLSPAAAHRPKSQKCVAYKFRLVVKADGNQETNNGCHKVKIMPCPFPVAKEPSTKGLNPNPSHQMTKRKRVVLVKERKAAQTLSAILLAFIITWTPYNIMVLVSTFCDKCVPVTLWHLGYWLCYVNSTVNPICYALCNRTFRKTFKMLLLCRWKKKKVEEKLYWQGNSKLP
Excerpt: as §1

[7] = target: Beta-1 adrenergic receptor (Homo sapiens, UniProt P08588)
Chain of Beta-1 adrenergic receptor (P08588 whole entry): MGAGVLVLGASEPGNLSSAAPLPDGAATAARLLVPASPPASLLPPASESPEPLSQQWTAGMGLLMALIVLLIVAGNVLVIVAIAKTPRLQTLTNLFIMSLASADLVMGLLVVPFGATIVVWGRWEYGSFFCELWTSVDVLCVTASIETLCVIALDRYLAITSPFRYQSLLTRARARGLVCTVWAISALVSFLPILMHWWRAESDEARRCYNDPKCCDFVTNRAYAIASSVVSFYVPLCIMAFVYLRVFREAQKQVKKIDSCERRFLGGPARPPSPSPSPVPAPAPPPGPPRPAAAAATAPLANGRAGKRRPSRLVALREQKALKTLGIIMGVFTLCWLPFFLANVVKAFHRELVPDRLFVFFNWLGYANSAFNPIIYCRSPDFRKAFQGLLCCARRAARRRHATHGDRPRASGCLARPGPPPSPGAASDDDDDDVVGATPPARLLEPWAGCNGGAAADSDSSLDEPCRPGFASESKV
Excerpt: as §1

[8] = target: T5, 5-hydroxytryptamine receptor 1A (Homo sapiens, UniProt P08908)
T5 sequence (P08908 whole entry): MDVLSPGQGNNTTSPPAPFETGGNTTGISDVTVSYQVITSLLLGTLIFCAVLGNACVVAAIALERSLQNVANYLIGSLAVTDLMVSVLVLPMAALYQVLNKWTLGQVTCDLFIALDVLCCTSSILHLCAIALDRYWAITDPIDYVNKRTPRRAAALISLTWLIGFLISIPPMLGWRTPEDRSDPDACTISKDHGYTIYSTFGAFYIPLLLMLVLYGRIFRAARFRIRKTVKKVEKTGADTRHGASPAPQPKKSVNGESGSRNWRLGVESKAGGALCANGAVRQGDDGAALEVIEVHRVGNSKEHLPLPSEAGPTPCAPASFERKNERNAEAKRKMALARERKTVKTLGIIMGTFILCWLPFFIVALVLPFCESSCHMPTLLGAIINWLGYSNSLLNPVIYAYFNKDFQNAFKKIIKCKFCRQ
Excerpt: as §1

Mu-type opioid receptor = Mu-type opioid receptor (Homo sapiens, UniProt P35372)
Chain of Mu-type opioid receptor (P35372 whole entry): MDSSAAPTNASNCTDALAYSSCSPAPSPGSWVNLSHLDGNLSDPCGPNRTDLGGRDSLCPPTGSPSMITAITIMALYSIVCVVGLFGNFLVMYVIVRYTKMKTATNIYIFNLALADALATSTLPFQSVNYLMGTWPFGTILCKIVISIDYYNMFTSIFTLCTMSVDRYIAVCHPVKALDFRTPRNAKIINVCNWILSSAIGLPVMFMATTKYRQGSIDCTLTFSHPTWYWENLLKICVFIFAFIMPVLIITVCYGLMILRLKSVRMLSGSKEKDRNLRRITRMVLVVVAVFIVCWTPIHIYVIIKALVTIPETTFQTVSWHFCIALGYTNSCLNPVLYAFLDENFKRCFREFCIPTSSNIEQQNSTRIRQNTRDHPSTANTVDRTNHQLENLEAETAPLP
Excerpt: as §1

[9] = target: 5-hydroxytryptamine receptor 2B (Homo sapiens, UniProt P41595)
Chain of 5-hydroxytryptamine receptor 2B (P41595 whole entry): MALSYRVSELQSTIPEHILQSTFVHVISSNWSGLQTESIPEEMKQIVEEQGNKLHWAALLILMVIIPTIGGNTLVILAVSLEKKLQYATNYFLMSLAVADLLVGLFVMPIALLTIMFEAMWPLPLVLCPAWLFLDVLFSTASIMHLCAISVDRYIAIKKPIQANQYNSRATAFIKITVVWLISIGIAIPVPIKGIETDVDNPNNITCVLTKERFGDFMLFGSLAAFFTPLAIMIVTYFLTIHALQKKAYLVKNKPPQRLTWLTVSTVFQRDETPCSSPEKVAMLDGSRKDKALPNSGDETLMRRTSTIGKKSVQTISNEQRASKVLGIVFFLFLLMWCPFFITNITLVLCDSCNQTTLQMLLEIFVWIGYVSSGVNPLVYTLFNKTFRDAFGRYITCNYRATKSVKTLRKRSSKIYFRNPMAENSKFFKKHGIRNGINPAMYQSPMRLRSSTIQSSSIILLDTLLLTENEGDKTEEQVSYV
Excerpt: as §1

Chain of 5-hydroxytryptamine receptor 2A (P28223 whole entry): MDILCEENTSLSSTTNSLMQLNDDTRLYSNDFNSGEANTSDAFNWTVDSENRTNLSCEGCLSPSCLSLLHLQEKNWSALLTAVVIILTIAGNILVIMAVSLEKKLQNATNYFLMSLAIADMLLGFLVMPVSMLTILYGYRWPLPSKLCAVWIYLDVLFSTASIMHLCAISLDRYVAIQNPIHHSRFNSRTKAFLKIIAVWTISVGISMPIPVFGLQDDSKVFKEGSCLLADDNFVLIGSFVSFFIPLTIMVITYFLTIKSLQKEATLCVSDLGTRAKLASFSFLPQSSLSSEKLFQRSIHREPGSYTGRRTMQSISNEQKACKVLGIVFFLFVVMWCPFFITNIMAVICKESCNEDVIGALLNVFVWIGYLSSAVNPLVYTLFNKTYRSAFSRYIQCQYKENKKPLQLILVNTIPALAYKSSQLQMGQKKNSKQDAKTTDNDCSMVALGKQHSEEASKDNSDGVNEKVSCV
Chain of Histamine H1 receptor (P35367 whole entry): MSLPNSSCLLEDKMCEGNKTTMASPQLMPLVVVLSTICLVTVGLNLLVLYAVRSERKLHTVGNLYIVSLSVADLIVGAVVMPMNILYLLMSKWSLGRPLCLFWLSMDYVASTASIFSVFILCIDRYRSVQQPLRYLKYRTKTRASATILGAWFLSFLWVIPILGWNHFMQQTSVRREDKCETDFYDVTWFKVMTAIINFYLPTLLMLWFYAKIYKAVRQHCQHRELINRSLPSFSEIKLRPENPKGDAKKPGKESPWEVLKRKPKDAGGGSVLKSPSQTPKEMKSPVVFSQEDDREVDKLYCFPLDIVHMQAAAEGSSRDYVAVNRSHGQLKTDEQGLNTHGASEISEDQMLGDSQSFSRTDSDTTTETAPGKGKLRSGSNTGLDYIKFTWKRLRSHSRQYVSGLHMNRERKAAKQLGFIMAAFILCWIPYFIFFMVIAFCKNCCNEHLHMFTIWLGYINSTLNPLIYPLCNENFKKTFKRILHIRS

Compound | Ki [1] [µM] | Ki (Histamine H1 receptor) [µM] | Ki [2] [µM] | Ki [3] [µM] | Ki (D(2) dopamine receptor) [µM] | Ki [4] [µM] | Ki [5] [µM] | Ki (D(1A) dopamine receptor) [µM] | Ki [6] [µM] | Ki [7] [µM] | Ki [8] [µM] | Ki (Mu-type opioid receptor) [µM] | Ki [9] [µM]
COc1cc(CCN)cc(OC)c1OC [3,4,5-trimethoxyphenylethylamine] | > 10 | > 10 | > 10 | > 10 | > 10 | > 10 | > 10 | > 10 | > 10 | > 10 | 1.84 | > 10 | 
CCc1cc(OC)c(CCN)cc1OC [2-(2,5-dimethoxy-4-ethylphenyl)ethylamine] | 0.0439 | > 10 | > 10 | > 10 | 3.34 | > 10 | > 10 | > 10 | 1.73 | > 10 |  | > 10 | 0.0251
CN(C)CCc1c[nH]c2ccccc12 [2-(1H-indol-3-yl)-N,N-dimethylethanamine] | 2.32 |  | > 10 | > 10 | > 10 | 0.974 | > 10 |  | > 10 | > 10 |  |  | 
C[C@@H]1C[C@H](C)N1C(=O)C1C=C2c3cccc4[nH]cc(c34)C[C@H]2N(C)C1 (stereo partly drawn) [cis-2a] | 0.0297 | 0.501 |  | > 10 | 0.0491 | > 10 |  | 0.232 |  |  | 0.0023 | > 10 | 0.044
NCCc1c2c(c(Br)c3c1OCC3)OCC2 [2-(8-Bromo-2,3,6,7-tetrahydro-benzo[1,2-b;4,5-b']difuran-4-yl)-ethylamine] | 0.0116 | 5.75 |  | > 10 | 6.84 | > 10 | 2.03 | 4.96 | 0.873 | > 10 | 0.147 | > 10 | 0.0009
CCc1cc(OC)c(CC(C)N)cc1OC (stereo unspecified) | 0.0273 | > 10 |  | > 10 | > 10 | > 10 | > 10 | > 10 | > 10 | 5.72 | 0.0144 | > 10 | 0.0288
COc1ccc2[nH]cc(CCN(C)C)c2c1 [3-(2-DIMETHYLAMINOETHYL)-5-METHOXYINDOLE] |  |  | > 10 | > 10 | 3.56 | > 10 | > 10 | 0.0795 | > 10 | > 10 |  |  | 
CN(C)CCc1c[nH]c2cccc(O)c12 [4-hydroxy-N,N-dimethyltryptamine] |  | > 10 | > 10 | > 10 | > 10 | > 10 | > 10 |  |  | > 10 |  | > 10 | 
COc1cc(OC)c(OC)cc1CC(C)N (stereo not drawn) [(+/-)1-Methyl-2-(2,4,5-trimethoxy-phenyl)-ethylamine] | 0.584 | 1.41 |  | > 10 | > 10 | > 10 | > 10 | > 10 | > 10 | > 10 | > 10 |  | 0.154
COc1cc(CCN)c(OC)cc1Br | 0.0276 | > 10 | > 10 | > 10 | 3.37 | > 10 | > 10 | > 10 | > 10 |  | 0.241 | > 10 | 0.0135
COc1ccc2[nH]c(C)c(CCN(C)C)c2c1 [[2-(5-Methoxy-2-methyl-1H-indol-3-yl)-ethyl]-dimethyl-amine (C2H2O)] | > 10 | > 10 | > 10 | > 10 | > 10 |  | > 10 |  | > 10 |  |  | > 10 | 
CCN(CC)C(=O)[C@@H]1C=C2c3cccc4[nH]cc(c34)C[C@H]2N(C)C1 [[N-methyl-3H]LSD] |  |  |  | > 10 | 0.11 | 8.68 |  | 0.177 |  |  |  | > 10 | 
CC(N)Cc1ccc2c(c1)OCO2 (stereo unspecified) | > 10 |  |  | > 10 | > 10 | > 10 | > 10 | > 10 | > 10 | > 10 | 3.76 |  | 0.091
COc1cc(CC(C)N)cc(OC)c1OC (stereo unspecified) | > 10 | > 10 |  | > 10 | > 10 | > 10 | > 10 | > 10 | > 10 | > 10 | 1.68 | > 10 | 0.477
CC[C@H]1C[C@@H]2C[C@H]3c4[nH]c5ccc(OC)cc5c4CCN(C2)[C@@H]13 | 14.1 | > 10 | 22.5 | 1.98 | > 10 |  | 39.4 | > 10 |  | > 10 | > 10 | 4.36 | 
CCc1[nH]c2ccc(OC)cc2c1CCN(C)C [2-ethyl-5-methoxy-N,N-dimethyltryptamine] | > 10 | > 10 | > 10 | > 10 | > 10 |  | > 10 |  | > 10 |  |  | > 10 | 
C[C@@H]1C[C@@H](C)N1C(=O)C1C=C2c3cccc4[nH]cc(c34)C[C@H]2N(C)C1 (stereo partly specified) [rr-2b] | 0.69 | 1.45 |  | > 10 | 0.264 | > 10 |  | 0.342 |  |  | 0.0052 | > 10 | 0.312
